Experimental data taken from ChEMBL document CHEMBL1938256, “Synthesis and DNA cleavage studies of novel quinoline oxime esters” (Bioorg Med Chem Lett, 2012).
The source made the active and inactive calls. The rule behind the calls is not given here.

Legend:
Type in all cases: nucleic-acid assay
Nucleic Acid [1] = assay: Induction of UV light-induced Escherichia coli pUC19 DNA cleavage assessed as conversion of supercoiled DNA into nicked form at 80 uM by neutral agarose gel electrophoresis
Nucleic Acid [2] = assay: Induction of Escherichia coli pUC19 DNA cleavage assessed as conversion of supercoiled DNA into nicked circular form at 40 to 80 uM by neutral agarose gel electrophoresis in presence of UV light
Nucleic Acid [3] = assay: Induction of UV light-induced Escherichia coli pUC19 DNA cleavage assessed as conversion of supercoiled DNA into linear form at 80 uM by neutral agarose gel electrophoresis

In the case of `O=C(O/N=C/c1cc2ccccc2nc1Cl)c1ccc([N+](=O)[O-])cc1`, the Activity (Nucleic Acid [1]) was “Active”, the Activity (Nucleic Acid [2]) was “Active” and the Activity (Nucleic Acid [3]) was “Active”.

For `O=C(O/N=C/c1cc2ccccc2nc1Cl)c1cc([N+](=O)[O-])cc([N+](=O)[O-])c1`, the Activity (Nucleic Acid [1]) was “Active”, the Activity (Nucleic Acid [2]) was “Active” and the Activity (Nucleic Acid [3]) was “Active”.

`O=C(O/N=C/c1cc2ccccc2nc1Cl)c1ccccc1F` was tested, and the Activity (Nucleic Acid [1]) was “Active”, the Activity (Nucleic Acid [2]) was “Active” and the Activity (Nucleic Acid [3]) was “Active”.

For `O=C(O/N=C/c1cc2ccccc2nc1Cl)c1ccc(Br)cc1`, the Activity (Nucleic Acid [1]) was “Active”, the Activity (Nucleic Acid [2]) was “Active” and the Activity (Nucleic Acid [3]) was “Active”.

`O=C(O/N=C/c1cc2ccccc2nc1Cl)c1ccccc1` was tested, and the Activity (Nucleic Acid [1]) was “inactive”, the Activity (Nucleic Acid [2]) was “Active” and the Activity (Nucleic Acid [3]) was “inactive”.

`COc1ccc(C(=O)O/N=C/c2cc3ccccc3nc2Cl)cc1` was tested, and the Activity (Nucleic Acid [1]) was “inactive”, the Activity (Nucleic Acid [2]) was “Active” and the Activity (Nucleic Acid [3]) was “inactive”.

For `O=C(O/N=C/c1cc2ccccc2nc1Cl)c1ccc(F)cc1`, the Activity (Nucleic Acid [1]) was “Active”, the Activity (Nucleic Acid [2]) was “Active” and the Activity (Nucleic Acid [3]) was “Active”.

For `O=C(O/N=C/c1cc2ccccc2nc1Cl)c1ccc(Cl)cc1`, the Activity (Nucleic Acid [1]) was “Active”, the Activity (Nucleic Acid [2]) was “Active” and the Activity (Nucleic Acid [3]) was “Active”.

In the case of `O=C(O/N=C/c1cc2ccccc2nc1Cl)c1ccc(O)cc1`, the Activity (Nucleic Acid [1]) was “inactive”, the Activity (Nucleic Acid [2]) was “Active” and the Activity (Nucleic Acid [3]) was “inactive”.
